Experiment [1] addresses T1, Adrenergic receptor alpha (Rattus norvegicus) (UniProt P15823+P23944+P43140+P22086+P19328+P22909). The experiment in a line: Irreversible inhibition of alpha adrenergic receptor in rat vas deferens assessed as inhibition of NE-induced contractions at 2 x 10' -5 M after 30 mins relative to N1,N1'-(2,2'-disulfanediylbis(ethane-2,1-diyl))dioctane-1,8-diamine tetrahydrochloride. It is filed as tissue-based.

The target of experiment [2] is T1, Adrenergic receptor alpha (Rattus norvegicus). The experiment can be described thus: Irreversible inhibition of alpha adrenergic receptor in rat vas deferens assessed as inhibition of NE-induced contractions at 2 x 10' -5 M after 30 mins relative to [N,N'-bis(o-methoxybenzylamino-n-hexyl)cystamine. It is filed as tissue-based.
For experiment [3], the species on record is Cavia porcellus. The experiment in a line: Effect on muscarinic receptor in guinea pig atrium assessed as reduction in carbachol-mediated ionotropic/chronotropic potency at 10 uM after 17 mins. The settings on record: Cardiac atrium. It is filed as tissue-based.
The species named for experiment [4] is Cavia porcellus. The experiment can be described thus: Effect on muscarinic receptor in guinea pig atrium assessed as reduction in carbachol-mediated ionotropic/chronotropic potency at 0.17 uM after 30 to 60 mins. In kind it is tissue-based. On the set-up: scale not given: the % may be the effect or the level left. The settings on record: Cardiac atrium.
For experiment [5], the species on record is Cavia porcellus. The experiment in a line: Antagonist activity at alpha adrenergic receptor in guinea pig atrium assessed as inhibition of 300 uM NE-induced contractions treated at 0.147 uM. In kind it is tissue-based. The settings on record: Cardiac atrium.
Experiment [6] is filed under the species Cavia porcellus. The experiment in a line: Potentiation of NE-mediated alpha adrenergic receptor activity in guinea pig atrium. It is filed as tissue-based. The settings on record: Cardiac atrium.
Experiment [7] is filed under the species Cavia porcellus. The experiment in a line: Antagonist activity at muscarinic receptor in guinea pig atrium assessed as reduction in butyrylcholine-induced response. It is filed as tissue-based. The settings on record: Cardiac atrium.
The species entered for experiment [8] is Cavia porcellus. The experiment can be described thus: Antagonist activity at alpha adrenergic receptor in guinea pig atrium assessed as inhibition of 30 uM NE-induced contractions treated at 0.147 uM. The settings on record: Cardiac atrium. In kind it is tissue-based.
The species entered for experiment [9] is Cavia porcellus. The experiment in a line: Antagonist activity at alpha adrenergic receptor in guinea pig atrium assessed as reduction in tyramine-mediated ionotropic/chronotropic potency. The settings on record: Cardiac atrium. In kind it is tissue-based.
For experiment [10], the species on record is Cavia porcellus. The experiment can be described thus: Antagonist activity at alpha adrenergic receptor in guinea pig atrium assessed as inhibition of 30 uM NE-induced contractions treated at 3 uM for 30 mins followed by washout. It is filed as tissue-based. The settings on record: Cardiac atrium.
Experiment [11] is filed under the species Oryctolagus cuniculus. The experiment in a line: Effect on histamine receptor in potassium-contracted rabbit aortic strip assessed as change in histamine-mediated response at 10 uM after 30 mins.
For experiment [12], the species on record is Cavia porcellus. The experiment can be described thus: Potentiation of NE-mediated alpha adrenergic receptor activity in guinea pig atrium at 10 to 30 uM. In kind it is tissue-based. The settings on record: Cardiac atrium.
For experiment [13], the species on record is Oryctolagus cuniculus. The experiment can be described thus: Effect on beta adrenergic receptor in potassium-contracted rabbit aortic strip assessed as change in isoprenaline-mediated response at 10 uM after 30 mins.
The species named for experiment [14] is Cavia porcellus. The experiment in a line: Antagonist activity at alpha adrenergic receptor in guinea pig atrium assessed as reduction in tyramine-mediated ionotropic/chronotropic potency at 10 to 30 uM. It is filed as tissue-based. The settings on record: Cardiac atrium.
Experiment [15] is filed under the species Cavia porcellus. The experiment in a line: Effect on muscarinic acetylcholine receptor in guinea pig ileum assessed as reduction in acetylcholine-induced contractile response at 7 uM after 20 to 40 mins. It is filed as tissue-based. Set-up: scale not given: the % may be the effect or the level left.
The species named for experiment [16] is Cavia porcellus. The experiment can be described thus: Effect on muscarinic acetylcholine receptor in guinea pig ileum assessed as reduction in acetylcholine-induced contractile response treated at 30 uM for 40 mins measured after 20 mins post washout. It is filed as tissue-based.
For experiment [17], the species on record is Oryctolagus cuniculus. The experiment can be described thus: Irreversible inhibition of alpha adrenergic receptor in rabbit aortic strip assessed as inhibition of NE-induced contractions at 0.3 uM after 90 mins.
For experiment [18], the species on record is Oryctolagus cuniculus. The experiment in a line: Irreversible inhibition of alpha adrenergic receptor in rabbit aortic strip assessed as inhibition of NE-induced contractions at 1 to 3 uM after 18 hrs.
For experiment [19], the species on record is Cavia porcellus. The experiment can be described thus: Effect on muscarinic receptor in guinea pig atrium assessed as reduction in carbachol-mediated ionotropic/chronotropic potency at 0.24 uM after 30 to 60 mins. In kind it is tissue-based. Set-up: scale not given: the % may be the effect or the level left. The settings on record: Cardiac atrium.
Experiment [20] is filed under the species Cavia porcellus. The experiment can be described thus: Effect on muscarinic receptor in guinea pig atrium assessed as reduction in carbachol-mediated ionotropic/chronotropic potency at 30 uM after 26 mins. The settings on record: Cardiac atrium. In kind it is tissue-based.
For experiment [21], the species on record is Oryctolagus cuniculus. The experiment can be described thus: Effect on 5-HT receptor in potassium-contracted rabbit aortic strip assessed as change in 5-HT-mediated response at 10 uM after 30 mins.
Experiment [22] is filed under the species Cavia porcellus. The experiment in a line: Antagonist activity at muscarinic receptor in guinea pig atrium assessed as reduction in butyrylcholine-induced response at 10 to 30 uM. In kind it is tissue-based. The settings on record: Cardiac atrium.
The target of experiment [23] is T1, Adrenergic receptor alpha (Rattus norvegicus). The experiment in a line: Irreversible inhibition of alpha adrenergic receptor in rat vas deferens assessed as inhibition of NE-induced contractions at <20 uM after 30 mins. It is filed as tissue-based.

Active and inactive are the calls of the source. The calls are words filed in the database; no cut-off is given here.

For `COc1ccccc1CNCCCCCNCCSSCCNCCCCCNCc1ccccc1OC`, the inhibition in experiment [1] and in experiment [2] was 59% each time.

Take `c1ccc(CNCCCCCCNCCSSCCNCCCCCCNCc2ccccc2)cc1`: the inhibition in experiment [1] and in [2] was 90% in each case.

On to `COc1cccc(CNCCCCCCNCCSSCCNCCCCCCNCc2cccc(OC)c2)c1`, for which the inhibition in experiment [1] and in [2] was 72% throughout.

Take `CN(CCCCCCCCN)CCSSCCN(C)CCCCCCCCN`: the inhibition in [1] and in experiment [2] was 90% throughout.

Consider `C=CCOc1ccccc1CNCCCCCCNCCSSCCNCCCCCCNCc1ccccc1OCC=C`, for which the inhibition in [1] and in experiment [2] was 71% each time.

Turning to `c1ccc(CNCCCCCCCNCCSSCCNCCCCCCCNCc2ccccc2)cc1`, the inhibition in experiment [1] and in experiment [2] was 58% each time.

For `NCCCCCCCCCCCCNCCSSCCNCCCCCCCCCCCCN`, the inhibition in [1] and in experiment [2] was 24% throughout.

Consider `COc1ccc(CNCCCCCCNCCSSCCNCCCCCCNCc2ccc(OC)c(OC)c2)cc1OC`, for which the inhibition in [1] and in [2] was 24% each time.

`COc1ccccc1CNCCCCCCNCCCCCCNCCCCCCNCc1ccccc1OC`: the outcome in the experiment listed under Cavia porcellus [3] was inactive. For the same compound, the Activity in the experiment listed under Cavia porcellus [4] was found to be 50%.

On to `COc1ccc(CNCCCCCCNCCSSCCNCCCCCCNCc2ccc(OC)cc2OC)c(OC)c1`, for which the inhibition in experiment [1] and in experiment [2] was 26% throughout.

For `CC(COc1ccccc1)N(CCCl)Cc1ccccc1` (stereo not drawn), the inhibition result in the experiment listed under Cavia porcellus [5], in the experiment filed under Cavia porcellus [7], in the experiment listed under Cavia porcellus [8] and in the experiment filed under Cavia porcellus [9] was “Active” in each case. In addition, the outcome in the experiment filed under Cavia porcellus [6] was Active.

Regarding `Cc1ccccc1CNCCCCCCCNCCSSCCNCCCCCCCNCc1ccccc1C`, the inhibition in experiment [1] and in [2] was 56% in each case.

Turning to `COc1ccccc1CNCCCCCCNCCSSCCNCCCCCCNCc1ccccc1OC`, the inhibition result in the experiment listed under Cavia porcellus [10], in the experiment filed under Cavia porcellus [14] and in the experiment filed under Cavia porcellus [22] was “inactive” each time. In addition, the result in the experiment filed under Oryctolagus cuniculus [11], in the experiment filed under Cavia porcellus [12], in the experiment filed under Oryctolagus cuniculus [13], in the experiment filed under Cavia porcellus [16], in the experiment listed under Cavia porcellus [20] and in the experiment filed under Oryctolagus cuniculus [21] was inactive. Further, the Activity in the experiment filed under Cavia porcellus [15] and in the experiment filed under Cavia porcellus [19] was 50% each time. Moreover, the inhibition result in the experiment filed under Oryctolagus cuniculus [17] and in the experiment filed under Oryctolagus cuniculus [18] was “Active” in each case. The inhibition – broadly, the percentage by which the read-out fell short of the control – in experiment [1] is 100%.

As for `COc1cccc(CNCCCCCCNCCSSCCNCCCCCCNCc2cccc(OC)c2OC)c1OC`, the inhibition in [1] and in experiment [2] was 26% throughout.

Consider `COc1ccc(OC)c(CNCCCCCCNCCSSCCNCCCCCCNCc2cc(OC)ccc2OC)c1`, for which the inhibition in [1] and in experiment [2] was 76% each time.

On to `NCCCCCCCNCCSSCCNCCCCCCCN`, for which the inhibition in experiment [1] and in [2] was 63% throughout.

Take `Cc1ccccc1CNCCCCCCCCNCCSSCCNCCCCCCCCNCc1ccccc1C`: the inhibition in experiment [1] and in [2] was 49% throughout.

As to `CCOc1ccccc1CNCCCCCCNCCSSCCNCCCCCCNCc1ccccc1OCC`, the inhibition in experiment [1] and in [2] was 81% throughout.

In the case of `Clc1ccccc1CNCCCCCCNCCSSCCNCCCCCCNCc1ccccc1Cl`, the inhibition in [1] and in experiment [2] was 44% in each case.

For `NCCCCCCCCCCNCCSSCCNCCCCCCCCCCN`, the inhibition in experiment [1] and in experiment [2] was 56% in each case.

Consider `Clc1cccc(Cl)c1CNCCCCCCNCCSSCCNCCCCCCNCc1c(Cl)cccc1Cl`, for which the inhibition in experiment [1] and in experiment [2] was 40% throughout.

Regarding `NCCCCCCNCCSSCCNCCCCCCN`, the inhibition in [1] and in experiment [2] was 27% in each case.

In the case of `Clc1ccccc1CNCCCCCCCNCCSSCCNCCCCCCCNCc1ccccc1Cl`, the inhibition in experiment [1] and in experiment [2] was 36% in each case.

As to `COc1ccccc1CNCCCCCCCNCCSSCCNCCCCCCCNCc1ccccc1OC`, the inhibition in [1] and in experiment [2] was 71% each time.

For the compound `Oc1ccc(CNCCCCCCNCCSSCCNCCCCCCNCc2ccc(O)c(O)c2)cc1O`, the inhibition in [1] and in experiment [2] was 98% in each case.

For the compound `Clc1cccc(Cl)c1CNCCCCCCCNCCSSCCNCCCCCCCNCc1c(Cl)cccc1Cl`, the inhibition in experiment [1] and in [2] was 39% in each case.

Take `COc1ccccc1CNCCCCCCCCNCCSSCCNCCCCCCCCNCc1ccccc1OC`: the inhibition in [1] and in experiment [2] was 41% throughout.

In the case of `NCCCCCCCCCNCCSSCCNCCCCCCCCCN`, the inhibition in experiment [1] and in [2] was 92% in each case.

Consider `NCCCCCNCCSSCCNCCCCCN`, for which the inhibition in experiment [1] and in experiment [2] was 10% each time.

In the case of `COc1cc(CNCCCCCCNCCSSCCNCCCCCCNCc2cc(OC)cc(OC)c2)cc(OC)c1`, the inhibition in experiment [1] and in experiment [2] was 41% in each case.

Consider `COc1ccccc1CNCCCCCCN(C)CCSSCCN(C)CCCCCCNCc1ccccc1OC`, for which the inhibition in experiment [1] and in [2] was 48% throughout.

As to `Cc1ccccc1CNCCCCCCNCCSSCCNCCCCCCNCc1ccccc1C`, the inhibition in [1] and in experiment [2] was 69% throughout.

Regarding `COc1ccc(CNCCCCCCNCCSSCCNCCCCCCNCc2ccc(OC)cc2)cc1`, the inhibition in experiment [1] and in [2] was 81% in each case.

As to `NCCCCCCCCNCCSSCCNCCCCCCCCN`, in experiment [23], the inhibition result was “Active”. The inhibition in [2] came to 100%.

The values are drawn from ChEMBL document CHEMBL3272229, “Molecular properties of the adrenergic alpha receptor. 2. Optimum covalent inhibition by two different prototypes of polyamine disulfides” (J Med Chem, 1978).
